In ChEMBL document CHEMBL1138214 (J Med Chem, 2006):
The source made the active and inactive calls. The calls are words filed in the database; no cut-off is given here.

What was measured:
[1] = biological target: T1, C-X-C chemokine receptor type 2 (Homo sapiens, UniProt P25025); test: Displacement of [125I]hCXCL8 from human CXCR2 receptor expressed in BaF3 cells; type: cell-based
T1 sequence (P25025 whole entry): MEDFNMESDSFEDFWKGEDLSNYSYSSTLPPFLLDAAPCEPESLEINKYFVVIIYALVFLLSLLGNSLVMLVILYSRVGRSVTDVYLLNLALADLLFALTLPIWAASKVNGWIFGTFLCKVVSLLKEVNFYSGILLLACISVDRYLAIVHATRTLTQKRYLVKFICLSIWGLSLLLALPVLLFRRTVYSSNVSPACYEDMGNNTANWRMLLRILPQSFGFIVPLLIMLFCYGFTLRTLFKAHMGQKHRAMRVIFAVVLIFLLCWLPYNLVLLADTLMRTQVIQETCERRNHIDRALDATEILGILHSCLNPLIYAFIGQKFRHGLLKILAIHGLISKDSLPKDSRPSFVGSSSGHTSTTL

[2] = AUC (0-6h) in rat at 10 mg/kg, po; type: ADME, organism-based; parameters: time < 6 hr, dose 10 mg/kg, route oral; conditions: plasma
[3] = biological target: T2, C-X-C chemokine receptor type 1 (Homo sapiens, UniProt P25024); test: Displacement of [125I]hCXCL8 from human CXCR1 receptor expressed in BaF3 cells; type: cell-based
T2 sequence (P25024 whole entry): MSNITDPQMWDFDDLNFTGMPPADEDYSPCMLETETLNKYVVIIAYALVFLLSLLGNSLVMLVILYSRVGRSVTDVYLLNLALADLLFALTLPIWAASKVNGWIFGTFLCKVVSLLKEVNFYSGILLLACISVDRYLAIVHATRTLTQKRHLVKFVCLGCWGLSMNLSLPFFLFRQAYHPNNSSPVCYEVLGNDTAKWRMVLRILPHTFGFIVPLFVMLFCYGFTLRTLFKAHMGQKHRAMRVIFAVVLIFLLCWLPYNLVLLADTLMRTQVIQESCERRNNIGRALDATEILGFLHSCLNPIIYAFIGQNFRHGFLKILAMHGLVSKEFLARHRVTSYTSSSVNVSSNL

[4] = biological target: T3, C-X-C chemokine receptor type 3 (Homo sapiens) (UniProt P49682); test: Inhibition of CXCR3 receptor at 2 to 20 uM
T3 sequence (whole entry): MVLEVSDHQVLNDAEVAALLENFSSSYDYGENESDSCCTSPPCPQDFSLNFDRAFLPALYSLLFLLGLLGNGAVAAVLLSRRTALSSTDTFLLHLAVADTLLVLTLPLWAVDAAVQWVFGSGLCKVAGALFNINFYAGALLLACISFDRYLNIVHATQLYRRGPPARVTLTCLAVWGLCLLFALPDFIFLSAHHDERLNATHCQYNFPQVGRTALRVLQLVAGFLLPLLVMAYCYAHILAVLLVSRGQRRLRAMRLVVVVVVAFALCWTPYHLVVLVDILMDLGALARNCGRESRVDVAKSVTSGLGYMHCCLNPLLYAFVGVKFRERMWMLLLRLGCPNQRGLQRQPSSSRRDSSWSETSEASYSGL

[5] = biological target: T4, fMet-Leu-Phe receptor (Homo sapiens) (UniProt P21462); test: Inhibition of fMLP-induced human neutrophil chemotaxis; type: functional
T4 sequence (whole entry): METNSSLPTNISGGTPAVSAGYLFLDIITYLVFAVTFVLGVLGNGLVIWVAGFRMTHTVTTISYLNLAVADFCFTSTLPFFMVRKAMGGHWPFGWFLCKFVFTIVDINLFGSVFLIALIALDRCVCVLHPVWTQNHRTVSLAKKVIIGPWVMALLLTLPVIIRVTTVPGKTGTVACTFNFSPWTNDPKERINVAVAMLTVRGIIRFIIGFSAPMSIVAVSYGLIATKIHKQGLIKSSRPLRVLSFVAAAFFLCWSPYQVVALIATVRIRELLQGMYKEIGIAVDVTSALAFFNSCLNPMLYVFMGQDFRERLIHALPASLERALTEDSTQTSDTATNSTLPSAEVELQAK

[6] = biological target: C-C chemokine receptor type 5 (Homo sapiens) (UniProt P51681); test: Inhibition of CCR5 receptor at 2 to 20 uM
[7] = biological target: T5, C5a anaphylatoxin chemotactic receptor 1 (Homo sapiens) (UniProt P21730); test: Inhibition of C5a-induced human neutrophil chemotaxis; type: functional
T5 sequence (whole entry): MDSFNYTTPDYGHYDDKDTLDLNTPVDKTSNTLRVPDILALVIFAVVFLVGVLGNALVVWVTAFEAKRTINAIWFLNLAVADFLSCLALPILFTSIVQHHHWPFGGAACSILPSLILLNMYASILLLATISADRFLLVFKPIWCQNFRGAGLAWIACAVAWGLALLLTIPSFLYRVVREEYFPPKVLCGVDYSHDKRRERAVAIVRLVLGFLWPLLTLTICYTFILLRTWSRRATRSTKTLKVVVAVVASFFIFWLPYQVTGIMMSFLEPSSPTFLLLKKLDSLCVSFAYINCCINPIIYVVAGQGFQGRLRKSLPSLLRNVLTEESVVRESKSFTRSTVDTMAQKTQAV

[8] = biological target: T6, C-X-C chemokine receptor type 1 (Homo sapiens) (UniProt P25024); test: Displacement of [125I]hCXCL8 from human CXCR1 receptor expressed in BaF3 cells at >10000 nM; type: cell-based
T6 sequence (whole entry): T2 sequence (P25024 whole entry)

[9] = biological target: Interleukin-8 receptors, CXCR1/CXCR2 (Homo sapiens) (UniProt P25025+P25024); test: Selectivity for CXCR2 over CXCR1; type: protein assay
[10] = biological target: T7, Interleukin-8 receptors, CXCR1/CXCR2 (Homo sapiens, UniProt P25025+P25024); test: Inhibition of CXCL8-induced human neutrophil chemotaxis; type: functional
T7 sequence (P25025 whole entry): T1 sequence (P25025 whole entry)
T7 sequence (P25024 whole entry): T2 sequence (P25024 whole entry)

Sequence of C-C chemokine receptor type 5 (Homo sapiens) (P51681 whole entry, looked up): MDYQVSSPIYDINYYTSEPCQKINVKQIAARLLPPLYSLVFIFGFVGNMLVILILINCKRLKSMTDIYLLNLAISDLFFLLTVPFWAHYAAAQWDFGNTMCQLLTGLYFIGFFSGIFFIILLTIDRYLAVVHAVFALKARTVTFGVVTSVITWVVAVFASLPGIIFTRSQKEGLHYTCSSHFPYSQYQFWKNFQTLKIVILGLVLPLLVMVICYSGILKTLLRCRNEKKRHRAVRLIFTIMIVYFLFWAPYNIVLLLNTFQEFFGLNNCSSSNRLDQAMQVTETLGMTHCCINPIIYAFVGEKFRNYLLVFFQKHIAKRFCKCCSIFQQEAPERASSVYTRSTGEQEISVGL

| SMILES | IC50 [1] | AUC(0-t) at 6 h [2] | IC50 [3] | other results |
| --- | --- | --- | --- | --- |
| Cc1ccc([C@H](Nc2c(Nc3cccc(C(=O)N(C)C)c3O)c(=O)c2=O)C(C)(C)C)o1 | 0.0038 µM | 2.6 µM·h | 0.011 µM | – |
| CC[C@@H](Nc1c(Nc2cccc(C(=O)N(C)C)c2O)c(=O)c1=O)c1ccc2c(c1)OCO2 | 0.005 µM | 31.7 µM·h | 0.145 µM | – |
| Cc1ccc([C@H](Nc2c(Nc3cccc(C(=O)N(C)C)c3O)c(=O)c2=O)C2CC2)o1 | 0.0036 µM | 1.4 µM·h | 0.055 µM | – |
| CN(C)C(=O)c1cccc(Nc2c(NCc3ccccc3)c(=O)c2=O)c1O | 0.236 µM | – | – | Activity [8]: inactive |
| C[C@H](Nc1c(Nc2cccc(C(=O)N(C)C)c2O)c(=O)c1=O)c1ccccc1 | – | – | – | Activity [8]: inactive |
| CC[C@@H](Nc1c(Nc2cccc(C(=O)N(C)C)c2O)c(=O)c1=O)c1ccccc1 | 0.0068 µM | 17.4 µM·h | 0.254 µM | IC50 [10]: 0.398 µM |
| Cc1ccc([C@H](Nc2c(Nc3cccc(C(=O)N(C)C)c3O)c(=O)c2=O)C(C)C)o1 | 0.0062 µM | 3.2 µM·h | 0.034 µM | – |
| CC[C@H](Nc1c(Nc2cccc(C(=O)N(C)C)c2O)c(=O)c1=O)c1ccccc1 | 0.234 µM | 1 µM·h | – | Activity [8]: inactive |

Now from value to molecule, other results behind:

| IC50 [1] | AUC(0-t) at 6 h [2] | IC50 [3] | SMILES | other results |
| --- | --- | --- | --- | --- |
| 0.0038 µM | 1.4 µM·h | 0.026 µM | CC[C@@H](Nc1c(Nc2cccc(C(=O)N(C)C)c2O)c(=O)c1=O)c1ccco1 | – |
| 0.006 µM | 2.5 µM·h | 0.081 µM | CC[C@@H](Nc1c(Nc2cccc(C(=O)N(C)C)c2O)c(=O)c1=O)c1cccs1 | – |
| 0.0049 µM | 18.3 µM·h | 0.197 µM | CC[C@@H](Nc1c(Nc2cccc(C(=O)N(C)C)c2O)c(=O)c1=O)c1cccc(F)c1 | – |
| – | 49 µM·h | – | CC[C@@H](Nc1c(Nc2cccc(C(=O)N(C)C)c2O)c(=O)c1=O)c1ccc(C)o1 [NAVARIXIN ANHYDROUS] | inhibition [4]: < 15%; Activity [5]: inactive; inhibition [6]: < 15%; Activity [7]: inactive |
| 0.0054 µM | 34 µM·h | 0.775 µM | Cc1ccc([C@@H](C)Nc2c(Nc3cccc(C(=O)N(C)C)c3O)c(=O)c2=O)o1 | Ratio IC50 [9]: > 100; IC50 [10]: 0.251 µM |
| – | – | 3.06 µM | C[C@@H](Nc1c(Nc2cccc(C(=O)N(C)C)c2O)c(=O)c1=O)c1ccccc1 | – |
| – | 6.4 µM·h | 0.91 µM | CCC(CC)Nc1c(Nc2cccc(C(=O)N(C)C)c2O)c(=O)c1=O | – |
| 0.0053 µM | 14.1 µM·h | 0.235 µM | CC[C@@H](Nc1c(Nc2cccc(C(=O)N(C)C)c2O)c(=O)c1=O)c1ccc(C)s1 | – |
